Test results reported in ChEMBL document CHEMBL3885861, “Open TG-GATES”.

Species on record: Rattus norvegicus
Experiment: Open TG-GATES - Regimen: Daily Repeat
Type: toxicity, organism-based, Sprague-Dawley
Set-up: regimen Daily Repeat, gender Male, age 6 weeks
Conditions: in vivo, po, route gavage; for APTT / Bas / Eos / Fbg / Hb / Lym / MCH / MCHC / MCV / Mono / Neu / PT / Plat / RBC / Ret / WBC: tissue Blood; for KIDNEY_L / KIDNEY_R / KIDNEY_TOTAL: tissue Kidney; for LIVER: tissue Liver; for ALP / ALT / AST / BUN / CRE / Ca / Cl / DBIL / GLC / IP / K / LDH / Na / PL / RALB / TBIL / TC / TG / TP / gamma-GTP: tissue Plasma
[1] = 6 mg/kg, 72 h, dose level Middle, time 3 day
[2] = 6 mg/kg, […], dose level Middle, time 7 day
[3] = 6 mg/kg, […], dose level Middle, time 14 day
[4] = 6 mg/kg, […], dose level Middle, time 28 day
[5] = 20 mg/kg, 72 h, dose level High, time 3 day
[6] = 20 mg/kg, […], dose level High, time 7 day
[7] = 20 mg/kg, […], dose level High, time 14 day
[8] = 20 mg/kg, […], dose level High, time 28 day

## OCCN1CCN(CCCN2c3ccccc3Sc3ccc(C(F)(F)F)cc32)CC1 [FLUPHENAZINE]
[1]
  TERMINAL_BW: 198.7 g
  APTT: 15.9 s
  Bas: 0%
  Eos: 0.6%
  Fbg: 227.2 mg/dL
  Hb: 15.1 g/dL
  Lym: 88.4%
  MCH: 21.2 pg
  MCHC: 33.3%
  MCV: 63.7 fL
  Mono: 5.8%
  Neu: 5.2%
  PT: 12.2 s
  Plat: 119.2 x10_4/uL
  RBC: 711.6 x10_4/ul
  Ret: 3.4%
  WBC: 119.1 x10_2/uL
  KIDNEY_L: 0.9 g
  KIDNEY_R: 0.9 g
  KIDNEY_TOTAL: 1.8 g
  LIVER: 9.5 g
  ALP: 909.4 IU/L
  ALT: 35 IU/L
  AST: 58.6 IU/L
  BUN: 24.8 mg/dL
  CRE: 0.6 mg/dL
  Ca: 10.8 mg/dL
  Cl: 106.4 meq/L
  DBIL: 0.008 mg/dL
  GLC: 177.4 mg/dL
  IP: 8 mg/dL
  K: 4.6 meq/L
  LDH: 84.6 IU/L
  Na: 138.4 meq/L
  PL: 186.6 mg/dL
  RALB: 4.3 g/dL
  TBIL: 0.2 mg/dL
  TC: 98.4 mg/dL
  TG: 112.6 mg/dL
  TP: 6.1 g/dL
  gamma-GTP: 0.6 IU/L
[2]
  TERMINAL_BW: 230.3 g
  APTT: 16.8 s
  Bas: 0%
  Eos: 0.6%
  Fbg: 224.2 mg/dL
  Hb: 14 g/dL
  Lym: 78.6%
  MCH: 21 pg
  MCHC: 33.3%
  MCV: 63.1 fL
  Mono: 5.6%
  Neu: 15.2%
  PT: 12.1 s
  Plat: 82.3 x10_4/uL
  RBC: 668.6 x10_4/ul
  Ret: 3.6%
  WBC: 95.8 x10_2/uL
  KIDNEY_L: 1 g
  KIDNEY_R: 1 g
  KIDNEY_TOTAL: 2 g
  LIVER: 10.9 g
  ALP: 836 IU/L
  ALT: 33 IU/L
  AST: 62.6 IU/L
  BUN: 18 mg/dL
  CRE: 0.5 mg/dL
  Ca: 10.5 mg/dL
  Cl: 105.2 meq/L
  DBIL: 0.012 mg/dL
  GLC: 170.6 mg/dL
  IP: 8.4 mg/dL
  K: 4.8 meq/L
  LDH: 79.4 IU/L
  Na: 137.4 meq/L
  PL: 178.8 mg/dL
  RALB: 4.1 g/dL
  TBIL: 0.3 mg/dL
  TC: 96.4 mg/dL
  TG: 106 mg/dL
  TP: 6 g/dL
  gamma-GTP: 1 IU/L
[3]
  TERMINAL_BW: 284.3 g
  APTT: 15.9 s
  Bas: 0%
  Eos: 0.8%
  Fbg: 217.2 mg/dL
  Hb: 14.4 g/dL
  Lym: 79.6%
  MCH: 20.1 pg
  MCHC: 33.3%
  MCV: 60.5 fL
  Mono: 5.8%
  Neu: 14%
  PT: 12.1 s
  Plat: 97 x10_4/uL
  RBC: 716.4 x10_4/ul
  Ret: 3.6%
  WBC: 128.9 x10_2/uL
  KIDNEY_L: 1.1 g
  KIDNEY_R: 1.1 g
  KIDNEY_TOTAL: 2.3 g
  LIVER: 11.9 g
  ALP: 859.2 IU/L
  ALT: 29.4 IU/L
  AST: 63.2 IU/L
  BUN: 18 mg/dL
  CRE: 0.5 mg/dL
  Ca: 10.7 mg/dL
  Cl: 103.6 meq/L
  DBIL: 0 mg/dL
  GLC: 190.8 mg/dL
  IP: 7.8 mg/dL
  K: 4.6 meq/L
  LDH: 99.2 IU/L
  Na: 135.2 meq/L
  PL: 141 mg/dL
  RALB: 4.2 g/dL
  TBIL: 0.3 mg/dL
  TC: 68 mg/dL
  TG: 109.2 mg/dL
  TP: 5.9 g/dL
  gamma-GTP: 1.6 IU/L
[4]
  TERMINAL_BW: 346.8 g
  APTT: 17.2 s
  Bas: 0%
  Eos: 1.2%
  Fbg: 209.2 mg/dL
  Hb: 15.6 g/dL
  Lym: 83%
  MCH: 19.7 pg
  MCHC: 33.4%
  MCV: 58.9 fL
  Mono: 5%
  Neu: 10.6%
  PT: 12.3 s
  Plat: 89.8 x10_4/uL
  RBC: 792.6 x10_4/ul
  Ret: 2.2%
  WBC: 134.3 x10_2/uL
  KIDNEY_L: 1.2 g
  KIDNEY_R: 1.2 g
  KIDNEY_TOTAL: 2.4 g
  LIVER: 13.7 g
  ALP: 483.8 IU/L
  ALT: 32.8 IU/L
  AST: 58.6 IU/L
  BUN: 21.4 mg/dL
  CRE: 0.6 mg/dL
  Ca: 10.7 mg/dL
  Cl: 107.6 meq/L
  DBIL: 0.006 mg/dL
  GLC: 175.2 mg/dL
  IP: 6.3 mg/dL
  K: 4.5 meq/L
  LDH: 75 IU/L
  Na: 140.4 meq/L
  PL: 147 mg/dL
  RALB: 4.2 g/dL
  TBIL: 0.3 mg/dL
  TC: 66.4 mg/dL
  TG: 138.8 mg/dL
  TP: 6.3 g/dL
  gamma-GTP: 1.6 IU/L
[5]
  TERMINAL_BW: 168.5 g
  APTT: 13.2 s
  Bas: 0%
  Eos: 1.2%
  Fbg: 176.8 mg/dL
  Hb: 16 g/dL
  Lym: 84.6%
  MCH: 21.1 pg
  MCHC: 33.1%
  MCV: 63.6 fL
  Mono: 5.2%
  Neu: 9.2%
  PT: 12.7 s
  Plat: 131.6 x10_4/uL
  RBC: 756.8 x10_4/ul
  Ret: 1.2%
  WBC: 83.2 x10_2/uL
  KIDNEY_L: 0.9 g
  KIDNEY_R: 0.9 g
  KIDNEY_TOTAL: 1.7 g
  LIVER: 7.4 g
  ALP: 538 IU/L
  ALT: 28 IU/L
  AST: 76.2 IU/L
  BUN: 23.4 mg/dL
  CRE: 0.6 mg/dL
  Ca: 10.1 mg/dL
  Cl: 108.4 meq/L
  DBIL: 0.036 mg/dL
  GLC: 180.4 mg/dL
  IP: 7 mg/dL
  K: 4.2 meq/L
  LDH: 189 IU/L
  Na: 140 meq/L
  PL: 128 mg/dL
  RALB: 4.2 g/dL
  TBIL: 0.3 mg/dL
  TC: 74.6 mg/dL
  TG: 48.4 mg/dL
  TP: 5.8 g/dL
  gamma-GTP: 1 IU/L
[6]
  TERMINAL_BW: 190 g
  APTT: 15.9 s
  Bas: 0%
  Eos: 0.4%
  Fbg: 204.6 mg/dL
  Hb: 15.5 g/dL
  Lym: 86.4%
  MCH: 20.9 pg
  MCHC: 33.8%
  MCV: 61.7 fL
  Mono: 4.8%
  Neu: 8.4%
  PT: 12.6 s
  Plat: 95.7 x10_4/uL
  RBC: 745.2 x10_4/ul
  Ret: 2.3%
  WBC: 93.7 x10_2/uL
  KIDNEY_L: 0.9 g
  KIDNEY_R: 0.9 g
  KIDNEY_TOTAL: 1.8 g
  LIVER: 9 g
  ALP: 653.8 IU/L
  ALT: 44.4 IU/L
  AST: 79.6 IU/L
  BUN: 28.8 mg/dL
  CRE: 0.5 mg/dL
  Ca: 10.3 mg/dL
  Cl: 105.4 meq/L
  DBIL: 0.01 mg/dL
  GLC: 158.2 mg/dL
  IP: 7 mg/dL
  K: 4.4 meq/L
  LDH: 195.8 IU/L
  Na: 140.4 meq/L
  PL: 184.6 mg/dL
  RALB: 4.2 g/dL
  TBIL: 0.2 mg/dL
  TC: 101.2 mg/dL
  TG: 98.6 mg/dL
  TP: 6.2 g/dL
  gamma-GTP: 1 IU/L
[7]
  TERMINAL_BW: 258.2 g
  APTT: 16.1 s
  Bas: 0%
  Eos: 0.8%
  Fbg: 214.5 mg/dL
  Hb: 14.8 g/dL
  Lym: 80.2%
  MCH: 20.5 pg
  MCHC: 33.3%
  MCV: 61.6 fL
  Mono: 6.2%
  Neu: 13%
  PT: 12.3 s
  Plat: 95.6 x10_4/uL
  RBC: 724 x10_4/ul
  Ret: 3.9%
  WBC: 124.5 x10_2/uL
  KIDNEY_L: 1 g
  KIDNEY_R: 1 g
  KIDNEY_TOTAL: 2.1 g
  LIVER: 11.9 g
  ALP: 872 IU/L
  ALT: 44.8 IU/L
  AST: 81.5 IU/L
  BUN: 19.8 mg/dL
  CRE: 0.6 mg/dL
  Ca: 10.8 mg/dL
  Cl: 103.2 meq/L
  DBIL: 0.0025 mg/dL
  GLC: 182.8 mg/dL
  IP: 8.7 mg/dL
  K: 4.2 meq/L
  LDH: 148 IU/L
  Na: 137.2 meq/L
  PL: 141 mg/dL
  RALB: 4.2 g/dL
  TBIL: 0.2 mg/dL
  TC: 66.5 mg/dL
  TG: 86.8 mg/dL
  TP: 6.2 g/dL
  gamma-GTP: 2 IU/L
[8]
  TERMINAL_BW: 303.2 g
  APTT: 16.6 s
  Bas: 0%
  Eos: 0.8%
  Fbg: 206 mg/dL
  Hb: 15.6 g/dL
  Lym: 84.2%
  MCH: 19.4 pg
  MCHC: 33.7%
  MCV: 57.7 fL
  Mono: 4%
  Neu: 11%
  PT: 12.3 s
  Plat: 73.1 x10_4/uL
  RBC: 804 x10_4/ul
  Ret: 2.5%
  WBC: 157 x10_2/uL
  KIDNEY_L: 1.1 g
  KIDNEY_R: 1.2 g
  KIDNEY_TOTAL: 2.3 g
  LIVER: 11.9 g
  ALP: 676.6 IU/L
  ALT: 31.6 IU/L
  AST: 80.2 IU/L
  BUN: 24.2 mg/dL
  CRE: 0.7 mg/dL
  Ca: 10.4 mg/dL
  Cl: 111.2 meq/L
  DBIL: 0.022 mg/dL
  GLC: 170.8 mg/dL
  IP: 6.2 mg/dL
  K: 4.4 meq/L
  LDH: 145.6 IU/L
  Na: 142 meq/L
  PL: 114.4 mg/dL
  RALB: 4.2 g/dL
  TBIL: 0.3 mg/dL
  TC: 57.8 mg/dL
  TG: 35.4 mg/dL
  TP: 6.4 g/dL
  gamma-GTP: 1.4 IU/L
